Data taken from ChEMBL document CHEMBL3991601, “The target landscape of clinical kinase drugs” (Science, 2017).
Activity calls are given as the source filed them. Cut-off read from the data, not from the text of the source, for most assays here: actives have a measured Kd and inactives only a lower limit.

Key:
[1] = biological target: Cyclin-dependent kinase 17 (Homo sapiens, UniProt Q00537)
[2] = biological target: Dual specificity protein kinase CLK4 (Homo sapiens, UniProt Q9HAZ1)
Ephrin type-A receptor 1 = biological target: T1, Ephrin type-A receptor 1 (Homo sapiens, UniProt P21709)
T1 sequence (P21709 whole entry): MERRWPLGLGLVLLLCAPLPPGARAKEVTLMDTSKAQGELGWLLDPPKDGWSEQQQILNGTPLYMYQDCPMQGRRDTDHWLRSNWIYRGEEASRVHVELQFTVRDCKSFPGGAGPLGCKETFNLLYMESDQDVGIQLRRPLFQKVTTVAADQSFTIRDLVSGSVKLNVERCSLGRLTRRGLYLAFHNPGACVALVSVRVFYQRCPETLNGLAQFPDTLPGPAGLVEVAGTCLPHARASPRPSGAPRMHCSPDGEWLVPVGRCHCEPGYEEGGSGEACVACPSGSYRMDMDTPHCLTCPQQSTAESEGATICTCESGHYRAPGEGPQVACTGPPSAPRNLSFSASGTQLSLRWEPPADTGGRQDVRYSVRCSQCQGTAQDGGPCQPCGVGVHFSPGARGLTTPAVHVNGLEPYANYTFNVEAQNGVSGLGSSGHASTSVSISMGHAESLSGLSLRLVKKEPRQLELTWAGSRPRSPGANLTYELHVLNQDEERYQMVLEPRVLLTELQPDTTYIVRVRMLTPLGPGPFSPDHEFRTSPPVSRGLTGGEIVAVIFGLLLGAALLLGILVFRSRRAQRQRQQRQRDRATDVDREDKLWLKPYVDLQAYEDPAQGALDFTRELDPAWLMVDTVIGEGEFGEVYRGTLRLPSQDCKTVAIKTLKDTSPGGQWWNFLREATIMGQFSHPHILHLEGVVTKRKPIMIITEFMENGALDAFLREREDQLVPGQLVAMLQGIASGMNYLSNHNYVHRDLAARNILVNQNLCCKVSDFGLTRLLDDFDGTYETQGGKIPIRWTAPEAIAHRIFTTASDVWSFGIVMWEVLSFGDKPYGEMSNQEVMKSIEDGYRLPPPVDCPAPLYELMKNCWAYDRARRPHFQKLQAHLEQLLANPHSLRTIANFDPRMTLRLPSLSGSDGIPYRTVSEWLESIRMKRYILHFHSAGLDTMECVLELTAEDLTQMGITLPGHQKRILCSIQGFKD

[3] = biological target: T2, Receptor-type tyrosine-protein kinase FLT3 (Homo sapiens, UniProt P36888)
T2 sequence (P36888 whole entry): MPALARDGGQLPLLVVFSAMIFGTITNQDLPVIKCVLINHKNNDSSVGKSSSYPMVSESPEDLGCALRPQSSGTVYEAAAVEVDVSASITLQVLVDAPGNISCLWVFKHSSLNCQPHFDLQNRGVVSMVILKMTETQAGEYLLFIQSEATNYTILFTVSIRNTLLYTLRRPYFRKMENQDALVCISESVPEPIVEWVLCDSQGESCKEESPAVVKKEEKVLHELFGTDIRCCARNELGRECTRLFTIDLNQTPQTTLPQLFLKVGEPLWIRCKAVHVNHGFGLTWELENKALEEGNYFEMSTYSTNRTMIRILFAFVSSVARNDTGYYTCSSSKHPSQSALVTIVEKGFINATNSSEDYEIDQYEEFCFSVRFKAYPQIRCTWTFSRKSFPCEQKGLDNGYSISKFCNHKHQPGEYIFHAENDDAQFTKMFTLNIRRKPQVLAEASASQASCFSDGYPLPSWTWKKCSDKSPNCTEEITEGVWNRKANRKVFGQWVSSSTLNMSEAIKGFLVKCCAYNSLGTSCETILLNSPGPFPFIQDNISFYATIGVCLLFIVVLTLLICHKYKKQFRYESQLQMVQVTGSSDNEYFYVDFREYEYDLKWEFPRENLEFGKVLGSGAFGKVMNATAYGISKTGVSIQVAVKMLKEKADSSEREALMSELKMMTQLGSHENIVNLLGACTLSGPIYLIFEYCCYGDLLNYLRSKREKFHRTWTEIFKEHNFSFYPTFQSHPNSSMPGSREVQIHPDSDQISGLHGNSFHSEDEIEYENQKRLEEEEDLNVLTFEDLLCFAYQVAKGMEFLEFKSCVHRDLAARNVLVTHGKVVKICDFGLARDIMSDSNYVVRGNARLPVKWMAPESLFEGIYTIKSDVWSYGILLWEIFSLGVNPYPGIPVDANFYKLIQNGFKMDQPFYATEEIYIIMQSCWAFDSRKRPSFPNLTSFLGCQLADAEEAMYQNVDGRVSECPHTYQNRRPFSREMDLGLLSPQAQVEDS

[4] = biological target: Glycogen synthase kinase-3 beta (Homo sapiens, UniProt P49841)
[5] = biological target: T3, MAP/microtubule affinity-regulating kinase 4 (Homo sapiens, UniProt Q96L34)
T3 sequence (Q96L34 whole entry): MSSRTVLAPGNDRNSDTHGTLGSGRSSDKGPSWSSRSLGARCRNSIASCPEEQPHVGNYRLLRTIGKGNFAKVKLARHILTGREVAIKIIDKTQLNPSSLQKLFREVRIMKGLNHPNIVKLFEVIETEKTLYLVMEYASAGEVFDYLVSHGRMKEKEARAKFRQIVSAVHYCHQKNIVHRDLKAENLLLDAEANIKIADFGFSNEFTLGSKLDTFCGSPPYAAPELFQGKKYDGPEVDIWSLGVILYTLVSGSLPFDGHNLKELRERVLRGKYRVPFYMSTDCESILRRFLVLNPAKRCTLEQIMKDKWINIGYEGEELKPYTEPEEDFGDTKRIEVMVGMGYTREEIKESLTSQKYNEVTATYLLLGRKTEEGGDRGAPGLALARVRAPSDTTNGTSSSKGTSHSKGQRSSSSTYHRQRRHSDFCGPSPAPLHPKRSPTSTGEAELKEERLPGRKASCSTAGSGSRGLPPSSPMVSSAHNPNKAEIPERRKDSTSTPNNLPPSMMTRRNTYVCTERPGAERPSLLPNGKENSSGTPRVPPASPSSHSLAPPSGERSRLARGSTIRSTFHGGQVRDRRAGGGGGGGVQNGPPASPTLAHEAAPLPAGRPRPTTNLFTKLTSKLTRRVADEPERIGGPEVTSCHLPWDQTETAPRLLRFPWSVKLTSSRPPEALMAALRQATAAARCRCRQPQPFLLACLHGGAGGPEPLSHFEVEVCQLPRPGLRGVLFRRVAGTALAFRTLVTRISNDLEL

[6] = biological target: Serine/threonine-protein kinase PAK 6 (Homo sapiens, UniProt Q9NQU5)
[7] = biological target: Membrane-associated progesterone receptor component 1 (Homo sapiens, UniProt O00264)
Note: in the data inactive means no Kd found up to 30 µM.

Chain of Dual specificity protein kinase CLK4 (Q9HAZ1 whole entry): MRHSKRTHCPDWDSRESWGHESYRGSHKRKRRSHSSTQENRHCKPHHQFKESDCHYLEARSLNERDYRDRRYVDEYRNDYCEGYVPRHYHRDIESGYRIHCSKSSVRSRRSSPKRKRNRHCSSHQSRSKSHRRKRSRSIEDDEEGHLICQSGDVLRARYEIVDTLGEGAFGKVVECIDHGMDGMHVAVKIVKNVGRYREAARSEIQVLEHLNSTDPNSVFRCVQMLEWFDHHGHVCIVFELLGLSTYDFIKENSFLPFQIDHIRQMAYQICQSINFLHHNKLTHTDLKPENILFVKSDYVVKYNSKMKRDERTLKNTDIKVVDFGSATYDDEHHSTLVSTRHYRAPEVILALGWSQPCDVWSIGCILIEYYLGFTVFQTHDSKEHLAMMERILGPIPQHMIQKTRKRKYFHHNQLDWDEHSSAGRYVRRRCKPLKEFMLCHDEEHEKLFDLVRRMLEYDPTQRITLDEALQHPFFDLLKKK
Chain of Cyclin-dependent kinase 17 (Q00537 whole entry): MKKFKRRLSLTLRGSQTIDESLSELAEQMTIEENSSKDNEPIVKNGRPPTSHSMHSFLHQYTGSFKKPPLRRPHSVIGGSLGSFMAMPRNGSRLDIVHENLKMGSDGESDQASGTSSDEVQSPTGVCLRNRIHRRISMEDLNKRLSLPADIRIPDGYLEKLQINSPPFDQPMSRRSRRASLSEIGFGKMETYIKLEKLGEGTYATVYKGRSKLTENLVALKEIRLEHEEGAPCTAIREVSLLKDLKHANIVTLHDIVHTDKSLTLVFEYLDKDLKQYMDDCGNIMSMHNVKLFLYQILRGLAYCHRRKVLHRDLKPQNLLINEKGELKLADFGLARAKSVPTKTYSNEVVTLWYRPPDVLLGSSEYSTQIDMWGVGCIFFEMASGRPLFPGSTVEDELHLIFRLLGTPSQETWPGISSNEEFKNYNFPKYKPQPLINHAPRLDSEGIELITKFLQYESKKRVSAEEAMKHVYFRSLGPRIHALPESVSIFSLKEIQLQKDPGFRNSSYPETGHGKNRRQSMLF
Chain of Serine/threonine-protein kinase PAK 6 (Q9NQU5 whole entry): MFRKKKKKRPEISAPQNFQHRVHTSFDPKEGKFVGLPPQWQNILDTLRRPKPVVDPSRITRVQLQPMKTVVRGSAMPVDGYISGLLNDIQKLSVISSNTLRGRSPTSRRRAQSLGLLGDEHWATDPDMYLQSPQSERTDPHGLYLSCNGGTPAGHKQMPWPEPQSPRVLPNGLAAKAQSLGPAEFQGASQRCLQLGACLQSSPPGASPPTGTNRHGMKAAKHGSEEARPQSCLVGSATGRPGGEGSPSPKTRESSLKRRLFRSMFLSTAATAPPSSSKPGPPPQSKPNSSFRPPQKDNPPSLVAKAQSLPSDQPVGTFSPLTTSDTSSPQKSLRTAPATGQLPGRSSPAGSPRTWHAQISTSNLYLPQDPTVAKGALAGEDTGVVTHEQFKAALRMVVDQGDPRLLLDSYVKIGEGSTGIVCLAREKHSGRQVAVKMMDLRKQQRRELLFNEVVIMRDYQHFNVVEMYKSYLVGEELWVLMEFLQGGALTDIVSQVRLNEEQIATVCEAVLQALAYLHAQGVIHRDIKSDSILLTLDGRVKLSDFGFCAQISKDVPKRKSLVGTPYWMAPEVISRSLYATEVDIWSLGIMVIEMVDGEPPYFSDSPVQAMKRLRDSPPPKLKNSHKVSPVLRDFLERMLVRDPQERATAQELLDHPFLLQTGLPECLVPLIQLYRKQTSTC
Chain of Glycogen synthase kinase-3 beta (P49841 whole entry): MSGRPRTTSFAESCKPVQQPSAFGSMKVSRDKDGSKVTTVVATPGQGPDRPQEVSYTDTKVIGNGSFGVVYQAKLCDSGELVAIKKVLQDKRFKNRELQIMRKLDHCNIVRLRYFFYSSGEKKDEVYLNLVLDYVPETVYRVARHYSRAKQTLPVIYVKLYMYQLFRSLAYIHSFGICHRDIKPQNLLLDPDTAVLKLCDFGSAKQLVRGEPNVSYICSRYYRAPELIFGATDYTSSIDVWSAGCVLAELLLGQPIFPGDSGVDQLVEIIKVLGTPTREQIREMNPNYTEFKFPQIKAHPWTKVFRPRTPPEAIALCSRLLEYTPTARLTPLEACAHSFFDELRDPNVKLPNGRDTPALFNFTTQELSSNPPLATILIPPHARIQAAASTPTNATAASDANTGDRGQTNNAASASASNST
Chain of Membrane-associated progesterone receptor component 1 (O00264 whole entry): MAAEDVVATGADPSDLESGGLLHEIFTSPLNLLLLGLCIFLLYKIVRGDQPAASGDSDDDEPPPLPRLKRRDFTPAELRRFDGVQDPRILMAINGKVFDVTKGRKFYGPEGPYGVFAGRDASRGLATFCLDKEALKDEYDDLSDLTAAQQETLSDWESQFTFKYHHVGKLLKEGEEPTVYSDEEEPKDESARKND

| Compound | Kd [1] | Kd [2] | Kd (Ephrin type-A receptor 1) | Kd [3] | Kd [4] | Kd [5] | Kd [6] | Kd [7] |
| --- | --- | --- | --- | --- | --- | --- | --- | --- |
| C#Cc1cccc(Nc2ncnc3cc4c(cc23)OCCOCCOCCO4)c1 [ICOTINIB] | > 30 µM (inactive) | > 30 µM (inactive) | > 30 µM (inactive) | > 30 µM (inactive) | > 30 µM (inactive) | > 30 µM (inactive) | > 30 µM (inactive) | > 30 µM (inactive) |
| COc1cc2ncnc(Nc3ccc(O)cc3)c2cc1OC [WHI-P131] | > 30 µM (inactive) | > 30 µM (inactive) | > 30 µM (inactive) | 1.31 µM (active) | > 30 µM (inactive) | – | > 30 µM (inactive) | > 30 µM (inactive) |
| CN(c1ncccc1CNc1nc(Nc2ccc3c(c2)CC(=O)N3)ncc1C(F)(F)F)S(C)(=O)=O [PF-00562271] | 0.089 µM (active) | > 30 µM (inactive) | > 30 µM (inactive) | – | – | – | > 30 µM (inactive) | > 30 µM (inactive) |
| O[C@H]1CC[C@H](Nc2ncc3nc(Nc4c(F)cc(F)cc4F)n([C@H]4CCOC4)c3n2)CC1 [TANZISERTIB] | > 30 µM (inactive) | > 30 µM (inactive) | > 30 µM (inactive) | > 30 µM (inactive) | > 30 µM (inactive) | > 30 µM (inactive) | > 30 µM (inactive) | – |
| CN1CCN(c2nc(C3=C(c4c[nH]c5ccccc45)C(=O)NC3=O)c3ccccc3n2)CC1 [SOTRASTAURIN] | > 30 µM (inactive) | > 30 µM (inactive) | > 30 µM (inactive) | > 30 µM (inactive) | 0.709 µM (active) | > 30 µM (inactive) | > 30 µM (inactive) | – |
| COc1cc(F)c(F)c(Nc2ccc(I)cc2F)c1NS(=O)(=O)C1(C[C@H](O)CO)CC1 [REFAMETINIB] | > 30 µM (inactive) | > 30 µM (inactive) | > 30 µM (inactive) | > 30 µM (inactive) | > 30 µM (inactive) | > 30 µM (inactive) | > 30 µM (inactive) | – |
| Cc1ccc(C(=O)Nc2ccc(Oc3cc4cnn(C)c4cc3-c3cn[nH]c3)c(F)c2)c(=O)n1-c1ccc(F)cc1 [MERESTINIB] | > 30 µM (inactive) | > 30 µM (inactive) | > 30 µM (inactive) | 0.309 µM (active) | > 30 µM (inactive) | > 30 µM (inactive) | > 30 µM (inactive) | > 30 µM (inactive) |
| CNC(=O)c1cccc(-c2ccc3c(N4CCOC[C@@H]4C)nc(N4CCOC[C@@H]4C)nc3n2)c1 [VISTUSERTIB] | > 30 µM (inactive) | > 30 µM (inactive) | > 30 µM (inactive) | > 30 µM (inactive) | > 30 µM (inactive) | > 30 µM (inactive) | > 30 µM (inactive) | > 30 µM (inactive) |
| c1cc(OCCN2CCCCC2)cc(-c2n[nH]c3ccc(-c4nc[nH]n4)cc23)c1 [CC-401] | > 30 µM (inactive) | > 30 µM (inactive) | > 30 µM (inactive) | > 30 µM (inactive) | – | > 30 µM (inactive) | > 30 µM (inactive) | > 30 µM (inactive) |
| Cn1cc(-c2[nH]c3cc(NC(=O)[C@H](N)C4CCCCC4)cc4c3c2C=NNC4=O)cn1 | > 30 µM (inactive) | > 30 µM (inactive) | > 30 µM (inactive) | 0.05 µM (active) | > 30 µM (inactive) | 0.036 µM | 0.019 µM | > 30 µM (inactive) |
| NC(=O)c1ccc(N(C(N)=O)c2c(F)cccc2F)nc1-c1ccc(F)cc1F [VX-702] | > 30 µM (inactive) | > 30 µM (inactive) | > 30 µM (inactive) | > 30 µM (inactive) | > 30 µM (inactive) | > 30 µM (inactive) | > 30 µM (inactive) | > 30 µM (inactive) |
| COCCN1CCN(Cc2ccc(-c3n[nH]c4c3C(=O)c3c(NC(=O)NN5CCOCC5)cccc3-4)cc2)CC1 [RGB-286638] | – | 0.002 µM | > 30 µM (inactive) | 0.323 µM (active) | 0.008 µM (active) | > 30 µM (inactive) | > 30 µM (inactive) | > 30 µM (inactive) |
| O=C(NOC[C@H](O)CO)c1ccc(F)c(F)c1Nc1ccc(I)cc1F [MIRDAMETINIB] | > 30 µM (inactive) | > 30 µM (inactive) | > 30 µM (inactive) | > 30 µM (inactive) | > 30 µM (inactive) | > 30 µM (inactive) | > 30 µM (inactive) | > 30 µM (inactive) |
| O=C(NC[C@H](O)CO)c1ccncc1Nc1ccc(I)cc1F [PIMASERTIB] | > 30 µM (inactive) | > 30 µM (inactive) | – | > 30 µM (inactive) | > 30 µM (inactive) | > 30 µM (inactive) | > 30 µM (inactive) | > 30 µM (inactive) |
| O=C(Nc1ccc(OC(F)(F)F)cc1)c1sccc1NCc1ccnc2ccccc12 [OSI-930] | > 30 µM (inactive) | > 30 µM (inactive) | > 30 µM (inactive) | > 30 µM (inactive) | > 30 µM (inactive) | > 30 µM (inactive) | > 30 µM (inactive) | > 30 µM (inactive) |
| COc1cc2nccc(Oc3ccc(NC(=O)C4(C(=O)Nc5ccc(F)cc5)CC4)cc3)c2cc1OC [CABOZANTINIB] | > 30 µM (inactive) | > 30 µM (inactive) | – | – | > 30 µM (inactive) | > 30 µM (inactive) | > 30 µM (inactive) | > 30 µM (inactive) |
| CCc1cc2c(cc1N1CCC(N3CCOCC3)CC1)C(C)(C)c1[nH]c3cc(C#N)ccc3c1C2=O [ALECTINIB] | > 30 µM (inactive) | > 30 µM (inactive) | 0.193 µM (active) | > 30 µM (inactive) | > 30 µM (inactive) | > 30 µM (inactive) | > 30 µM (inactive) | – |
